Measurements as given in ChEMBL document CHEMBL1671627, “Increasing trends in antimicrobial resistance among clinically important anaerobes and Bacteroides fragilis isolates causing nosocomial infections: emerging resistance to carbapenems” (2008).
Converted amounts (≈) assume the structure as drawn.

Columns and labels:
Parvimonas micra [1] = experiment: Antibacterial activity against beta-lactamase producing Micromonas micros by CLSI agar dilution method; type: functional
Prevotella bivia [2] = experiment: Antibacterial activity against Prevotella bivia assessed as susceptible isolates by CLSI agar dilution method; type: functional
Parvimonas micra [3] = experiment: Antibacterial activity against beta-lactamase producing Micromonas micros assessed as susceptible isolates by CLSI agar dilution method; type: functional
[4] = test system: Prevotella melaninogenica; experiment: Antibacterial activity against Prevotella melaninogenica assessed as resistant isolates by CLSI agar dilution method; type: functional
Bacteroides fragilis [5] = experiment: Antibacterial activity against Bacteroides fragilis assessed as susceptible isolates by CLSI agar dilution method; type: functional
Fusobacterium varium [6] = experiment: Antibacterial activity against Fusobacterium varium by CLSI agar dilution method; type: functional
Bacteroides fragilis [7] = experiment: Antibacterial activity against Bacteroides fragilis assessed as resistant isolates by CLSI agar dilution method; type: functional
Clostridium septicum [8] = experiment: Antibacterial activity against beta-lactamase producing Clostridium septicum assessed as resistant isolates by CLSI agar dilution method; type: functional
[9] = test system: Clostridium paraputrificum; experiment: Antibacterial activity against beta-lactamase producing Clostridium paraputrificum assessed as susceptible isolates by CLSI agar dilution method; type: functional
[10] = test system: Peptoniphilus asaccharolyticus; experiment: Antibacterial activity against beta-lactamase producing Peptoniphilus asaccharolyticus by CLSI agar dilution method; type: functional
Clostridium septicum [11] = experiment: Antibacterial activity against beta-lactamase producing Clostridium septicum assessed as susceptible isolates by CLSI agar dilution method; type: functional
Clostridium tertium [12] = experiment: Antibacterial activity against beta-lactamase producing Clostridium tertium assessed as resistant isolates by CLSI agar dilution method; type: functional
[13] = test system: Clostridium paraputrificum; experiment: Antibacterial activity against beta-lactamase producing Clostridium paraputrificum by CLSI agar dilution method; type: functional
Fusobacterium mortiferum [14] = experiment: Antibacterial activity against Fusobacterium mortiferum by CLSI agar dilution method; type: functional
[15] = test system: Peptostreptococcus anaerobius; experiment: Antibacterial activity against beta-lactamase producing Peptostreptococcus anaerobius by CLSI agar dilution method; type: functional
Bacteroides fragilis [16] = experiment: Antibacterial activity against Bacteroides fragilis by CLSI agar dilution method; type: functional
Finegoldia magna [17] = experiment: Antibacterial activity against beta-lactamase producing Finegoldia magna assessed as resistant isolates by CLSI agar dilution method; type: functional
Clostridium tertium [18] = experiment: Antibacterial activity against beta-lactamase producing Clostridium tertium assessed as susceptible isolates by CLSI agar dilution method; type: functional
[19] = test system: Bacteroides thetaiotaomicron; experiment: Antibacterial activity against beta-lactamase producing Bacteroides thetaiotaomicron by CLSI agar dilution method; type: functional
[20] = test system: Peptoniphilus asaccharolyticus; experiment: Antibacterial activity against beta-lactamase producing Peptoniphilus asaccharolyticus assessed as resistant isolates by CLSI agar dilution method; type: functional
[21] = test system: Peptostreptococcus anaerobius; experiment: Antibacterial activity against beta-lactamase producing Peptostreptococcus anaerobius assessed as resistant isolates by CLSI agar dilution method; type: functional
Parvimonas micra [22] = experiment: Antibacterial activity against beta-lactamase producing Micromonas micros assessed as resistant isolates by CLSI agar dilution method; type: functional
[23] = test system: Prevotella melaninogenica; experiment: Antibacterial activity against Prevotella melaninogenica assessed as susceptible isolates by CLSI agar dilution method; type: functional
[24] = test system: Peptostreptococcus anaerobius; experiment: Antibacterial activity against beta-lactamase producing Peptostreptococcus anaerobius assessed as susceptible isolates by CLSI agar dilution method; type: functional
Clostridium perfringens = experiment: microbe, parasite or virus in culture; type: functional
Bacteroides caccae [25] = experiment: Antibacterial activity against beta-lactamase producing Bacteroides caccae assessed as resistant isolates by CLSI agar dilution method; type: functional
Prevotella intermedia [26] = experiment: Antibacterial activity against Prevotella intermedia assessed as susceptible isolates by CLSI agar dilution method; type: functional
Prevotella buccae [27] = experiment: Antibacterial activity against Prevotella buccae assessed as susceptible isolates by CLSI agar dilution method; type: functional, Segatella buccae
Bacteroides uniformis [28] = experiment: Antibacterial activity against beta-lactamase producing Bacteroides uniformis assessed as susceptible isolates by CLSI agar dilution method; type: functional
Bacteroides uniformis [29] = experiment: Antibacterial activity against beta-lactamase producing Bacteroides uniformis assessed as resistant isolates by CLSI agar dilution method; type: functional
[30] = test system: Fusobacterium necrophorum; experiment: Antibacterial activity against Fusobacterium necrophorum assessed as susceptible isolates by CLSI agar dilution method; type: functional
Prevotella buccae [31] = experiment: Antibacterial activity against Prevotella buccae by CLSI agar dilution method; type: functional; details: Segatella buccae
Bacteroides uniformis [32] = experiment: Antibacterial activity against beta-lactamase producing Bacteroides uniformis by CLSI agar dilution method; type: functional
Fusobacterium mortiferum [33] = experiment: Antibacterial activity against Fusobacterium mortiferum assessed as susceptible isolates by CLSI agar dilution method; type: functional
[34] = test system: Fusobacterium necrophorum; experiment: Antibacterial activity against Fusobacterium necrophorum by CLSI agar dilution method; type: functional
Prevotella bivia [35] = experiment: Antibacterial activity against Prevotella bivia by CLSI agar dilution method; type: functional
Fusobacterium nucleatum [36] = experiment: Antibacterial activity against Fusobacterium nucleatum by CLSI agar dilution method; type: functional
Phocaeicola vulgatus [37] = experiment: Antibacterial activity against beta-lactamase producing Bacteroides vulgatus assessed as resistant isolates by CLSI agar dilution method; type: functional
Bacteroides caccae [38] = experiment: Antibacterial activity against beta-lactamase producing Bacteroides caccae by CLSI agar dilution method; type: functional
Finegoldia magna [39] = experiment: Antibacterial activity against beta-lactamase producing Finegoldia magna assessed as susceptible isolates by CLSI agar dilution method; type: functional
Clostridium tertium [40] = experiment: Antibacterial activity against beta-lactamase producing Clostridium tertium by CLSI agar dilution method; type: functional
Finegoldia magna [41] = experiment: Antibacterial activity against beta-lactamase producing Finegoldia magna by CLSI agar dilution method; type: functional
Fusobacterium nucleatum [42] = experiment: Antibacterial activity against Fusobacterium nucleatum assessed as resistant isolates by CLSI agar dilution method; type: functional
Fusobacterium mortiferum [43] = experiment: Antibacterial activity against Fusobacterium mortiferum assessed as resistant isolates by CLSI agar dilution method; type: functional
Fusobacterium nucleatum [44] = experiment: Antibacterial activity against Fusobacterium nucleatum assessed as susceptible isolates by CLSI agar dilution method; type: functional
[45] = test system: Bacteroides thetaiotaomicron; experiment: Antibacterial activity against beta-lactamase producing Bacteroides thetaiotaomicron assessed as susceptible isolates by CLSI agar dilution method; type: functional
Fusobacterium varium [46] = experiment: Antibacterial activity against Fusobacterium varium assessed as resistant isolates by CLSI agar dilution method; type: functional
[47] = test system: Prevotella melaninogenica; experiment: Antibacterial activity against Prevotella melaninogenica by CLSI agar dilution method; type: functional
Phocaeicola vulgatus [48] = experiment: Antibacterial activity against beta-lactamase producing Bacteroides vulgatus assessed as susceptible isolates by CLSI agar dilution method; type: functional
Phocaeicola vulgatus [49] = experiment: Antibacterial activity against beta-lactamase producing Bacteroides vulgatus by CLSI agar dilution method; type: functional
[50] = test system: Fusobacterium necrophorum; experiment: Antibacterial activity against Fusobacterium necrophorum assessed as resistant isolates by CLSI agar dilution method; type: functional
Clostridium septicum [51] = experiment: Antibacterial activity against beta-lactamase producing Clostridium septicum by CLSI agar dilution method; type: functional
Prevotella bivia [52] = experiment: Antibacterial activity against Prevotella bivia assessed as resistant isolates by CLSI agar dilution method; type: functional
[53] = test system: Clostridium paraputrificum; experiment: Antibacterial activity against beta-lactamase producing Clostridium paraputrificum assessed as resistant isolates by CLSI agar dilution method; type: functional
Bacteroides caccae [54] = experiment: Antibacterial activity against beta-lactamase producing Bacteroides caccae assessed as susceptible isolates by CLSI agar dilution method; type: functional
Prevotella buccae [55] = experiment: Antibacterial activity against Prevotella buccae assessed as resistant isolates by CLSI agar dilution method; type: functional, Segatella buccae
Fusobacterium varium [56] = experiment: Antibacterial activity against Fusobacterium varium assessed as susceptible isolates by CLSI agar dilution method; type: functional
[57] = test system: Peptoniphilus asaccharolyticus; experiment: Antibacterial activity against beta-lactamase producing Peptoniphilus asaccharolyticus assessed as susceptible isolates by CLSI agar dilution method; type: functional
Prevotella intermedia [58] = experiment: Antibacterial activity against Prevotella intermedia by CLSI agar dilution method; type: functional
Prevotella intermedia [59] = experiment: Antibacterial activity against Prevotella intermedia assessed as resistant isolates by CLSI agar dilution method; type: functional
[60] = test system: Bacteroides thetaiotaomicron; experiment: Antibacterial activity against beta-lactamase producing Bacteroides thetaiotaomicron assessed as resistant isolates by CLSI agar dilution method; type: functional
Veillonella parvula = experiment: Antibacterial activity against Veillonella parvula by CLSI agar dilution method; type: functional

## C[C@@H](O)[C@H]1C(=O)N2C(C(=O)O)=C(S[C@@H]3CN[C@H](C(=O)N(C)C)C3)[C@H](C)[C@H]12 [MEROPENEM]
Parvimonas micra [1]
  MIC50: 0.06 µg/mL (≈ 0.156 µM)
  MIC90: 0.5 µg/mL (≈ 1.3 µM)
Prevotella bivia [2]
  Activity: 100%
Parvimonas micra [3]
  Activity: 100%
[4]
  Activity: 0%
Bacteroides fragilis [5]
  Activity: 88%
Fusobacterium varium [6]
  MIC50: 0.06 µg/mL (≈ 0.156 µM)
  MIC90: 0.12 µg/mL (≈ 0.313 µM)
Bacteroides fragilis [7]
  Activity: 5%
Clostridium septicum [8]
  Activity: 0%
[9]
  Activity: 100%
[10]
  MIC50: 0.06 µg/mL (≈ 0.156 µM)
  MIC90: 0.5 µg/mL (≈ 1.3 µM)
Clostridium septicum [11]
  Activity: 100%
Clostridium tertium [12]
  Activity: 0%
[13]
  MIC: 0.03 µg/mL (≈ 0.0782 µM)
  MIC50: 0.03 µg/mL (≈ 0.0782 µM)
  MIC90: 2 µg/mL (≈ 5.22 µM)
Fusobacterium mortiferum [14]
  MIC50: 0.06 µg/mL (≈ 0.156 µM)
  MIC90: 0.12 µg/mL (≈ 0.313 µM)
[15]
  MIC50: 0.06 µg/mL (≈ 0.156 µM)
  MIC90: 0.5 µg/mL (≈ 1.3 µM)
Bacteroides fragilis [16]
  MIC50: 0.28 µg/mL (≈ 0.73 µM)
  MIC90: 8 µg/mL (≈ 20.9 µM)
Finegoldia magna [17]
  Activity: 0%
Clostridium tertium [18]
  Activity: 100%
[19]
  MIC50: 0.25 µg/mL (≈ 0.652 µM)
  MIC90: 2 µg/mL (≈ 5.22 µM)
[20]
  Activity: 0%
[21]
  Activity: 0%
Parvimonas micra [22]
  Activity: 0%
[23]
  Activity: 100%
[24]
  Activity: 100%
Clostridium perfringens
  MIC: 0.03 µg/mL (≈ 0.0782 µM)
  MIC50: 0.03 µg/mL (≈ 0.0782 µM)
  MIC90: 2 µg/mL (≈ 5.22 µM)
Bacteroides caccae [25]
  Activity: 4%
Prevotella intermedia [26]
  Activity: 100%
Prevotella buccae [27]
  Activity: 100%
Bacteroides uniformis [28]
  Activity: 96%
Bacteroides uniformis [29]
  Activity: 4%
[30]
  Activity: 92%
Prevotella buccae [31]
  MIC50: 0.12 µg/mL (≈ 0.313 µM)
  MIC90: 0.25 µg/mL (≈ 0.652 µM)
Bacteroides uniformis [32]
  MIC50: 0.5 µg/mL (≈ 1.3 µM)
  MIC90: 2 µg/mL (≈ 5.22 µM)
Fusobacterium mortiferum [33]
  Activity: 92%
[34]
  MIC50: 0.06 µg/mL (≈ 0.156 µM)
  MIC90: 0.12 µg/mL (≈ 0.313 µM)
Prevotella bivia [35]
  MIC50: 0.12 µg/mL (≈ 0.313 µM)
  MIC90: 0.25 µg/mL (≈ 0.652 µM)
Fusobacterium nucleatum [36]
  MIC50: 0.06 µg/mL (≈ 0.156 µM)
  MIC90: 0.12 µg/mL (≈ 0.313 µM)
Phocaeicola vulgatus [37]
  Activity: 4%
Bacteroides caccae [38]
  MIC50: 0.5 µg/mL (≈ 1.3 µM)
  MIC90: 2 µg/mL (≈ 5.22 µM)
Finegoldia magna [39]
  Activity: 100%
Clostridium tertium [40]
  MIC: 0.03 µg/mL (≈ 0.0782 µM)
  MIC50: 0.03 µg/mL (≈ 0.0782 µM)
  MIC90: 2 µg/mL (≈ 5.22 µM)
Finegoldia magna [41]
  MIC50: 0.06 µg/mL (≈ 0.156 µM)
  MIC90: 0.5 µg/mL (≈ 1.3 µM)
Fusobacterium nucleatum [42]
  Activity: 8%
Fusobacterium mortiferum [43]
  Activity: 8%
Fusobacterium nucleatum [44]
  Activity: 92%
[45]
  Activity: 97%
Fusobacterium varium [46]
  Activity: 8%
[47]
  MIC50: 0.12 µg/mL (≈ 0.313 µM)
  MIC90: 0.25 µg/mL (≈ 0.652 µM)
Phocaeicola vulgatus [48]
  Activity: 96%
Phocaeicola vulgatus [49]
  MIC50: 0.5 µg/mL (≈ 1.3 µM)
  MIC90: 2 µg/mL (≈ 5.22 µM)
[50]
  Activity: 8%
Clostridium septicum [51]
  MIC: 0.03 µg/mL (≈ 0.0782 µM)
  MIC50: 0.03 µg/mL (≈ 0.0782 µM)
  MIC90: 2 µg/mL (≈ 5.22 µM)
Prevotella bivia [52]
  Activity: 0%
[53]
  Activity: 0%
Bacteroides caccae [54]
  Activity: 96%
Prevotella buccae [55]
  Activity: 0%
Fusobacterium varium [56]
  Activity: 92%
[57]
  Activity: 100%
Prevotella intermedia [58]
  MIC50: 0.12 µg/mL (≈ 0.313 µM)
  MIC90: 0.25 µg/mL (≈ 0.652 µM)
Prevotella intermedia [59]
  Activity: 0%
[60]
  Activity: 0%
Veillonella parvula
  MIC: 0.06 µg/mL (≈ 0.156 µM)
